The source of these data is article PMC3541007 (ChemMedChem, 2009).

≈ marks a conversion by molar mass, not a printed value. Where “and” joins values, the source holds several entries; their conditions need not be identical. Equal values may be shown once. Read-outs that look alike come from different tables or passages of the source. A value given as a limit tells only on which side of the number the result lay.

Assay [1] deals with InhA. As to conditions: read-out: InhA IC50; cited from earlier work.
The test system of assay [2] is H37Rv. Conditions: cited from earlier work.
In assay [3] the test system is M. tuberculosis H37Rv PmabAinhA (C-15T). In kind it is cell-based. Conditions: for MIC H37Rv PmabAinhA (C-15T): four weeks.
Assay [4] has as its system M. tuberculosis H37Rv ΔkatG. In kind it is cell-based, Mycobacterium tuberculosis.
In assay [5] the target is InhA. Conditions: read-out: Ki against InhA; cited from earlier work.
Assay [6] concerns M. tuberculosis H37Rv. In kind it is cell-based. Conditions: wild-type, INH-sensitive, four weeks.

For the compound `CCCCCCCCc1ccc(Oc2ccccc2)c(O)c1` [Sullivan’s n-octyl analog], the half-inhibitory concentration (IC50) in assay [1] is 5 nM. The “MIC vs. H37Rv” value in assay [2] (des-chloro analogs of Sullivan) is reported as 6.5 µM (≈ 1.94 µg/mL).
With `NNC(=O)c1ccncc1` [INH, isoniazid], in assay [3] (MIC ratio vs wild-type strain), the “fold loss in potency versus InhA(C-15T) strain compared to wild-type” value was 13 fold. Moreover, in assay [4], the “MIC H37Rv ΔkatG” value is >200 (>1400) µg/ml and >200 (>1400) µM.
For `CCc1cc(C(N)=S)ccn1` [ethionamide], the MIC in assay [2] is given as 18 µM (≈ 2.99 µg/mL).
`NC(=O)C1=CN([C@@H]2O[C@H](COP(=O)(O)OP(=O)(O)OC[C@H]3O[C@@H](n4cnc5c(N)ncnc54)[C@H](O)[C@@H]3O)[C@@H](O)[C@H]2O)C=C[C@@H]1C(=O)c1ccncc1` [INH-NAD]: the Ki in assay [5] was 5 nM.
As for 5-n-butyltriclosan [Compound 10], the “MIC H37Rv PmabAinhA (C-15T)” value turned out to be 37 µg/mL in assay [3] and 120 µM in assay [3] (value in parentheses). Also, the “MIC H37Rv ΔkatG” value in assay [4] was 19 (60) µg/ml and 19 (60) µM. Besides, the “MIC H37Rv” value in assay [6] amounted to 9.4 µg/mL; in assay [6] (value in parentheses), 30 µM.
